Values quoted from earlier work in patent US8753875B2, “Compositions and means for diagnosing microbial infections” (priority 2007, dated 2014).
Where two headings read alike, the source gives them in different places.

Test system: E. coli
Conditions: cited from earlier work

SMILES | Antimicrobial resistance of E. coli (resistance in percent) (Austria, n 126) [%] | Antimicrobial resistance of E. coli (resistance in percent) (Belgium, n 137) [%] | Antimicrobial resistance of E. coli (resistance in percent) (Canada, n 166) [%] | Antimicrobial resistance of E. coli (resistance in percent) (Denmark, n 85) [%] | Antimicrobial resistance of E. coli (resistance in percent) (Finland, n 182) [%] | Antimicrobial resistance of E. coli (resistance in percent) (France, n 199) [%] | Antimicrobial resistance of E. coli (resistance in percent) (Germany, n 138) [%] | Antimicrobial resistance of E. coli (resistance in percent) (Greece, n 132) [%] | Antimicrobial resistance of E. coli (resistance in percent) (Ireland, n 154) [%] | Antimicrobial resistance of E. coli (resistance in percent) (Luxembourg, n 24) [%] | Antimicrobial resistance of E. coli (resistance in percent) (Norway, n 168) [%] | Antimicrobial resistance of E. coli (resistance in percent) (Portugal, n 86) [%] | Antimicrobial resistance of E. coli (resistance in percent) (Spain, n 191) [%] | Antimicrobial resistance of E. coli (resistance in percent) (Sweden, n 193) [%] | Antimicrobial resistance of E. coli (resistance in percent) (Switzerland, n 122) [%] | Antimicrobial resistance of E. coli (resistance in percent) (The Netherlands, n 195) [%] | Antimicrobial resistance of E. coli (resistance in percent) (Total, n 2478) [%] | Antimicrobial resistance of E. coli (resistance in percent) (United Kingdom, n 180) [%]
CNC(C)C1CCC(N)C(OC2C(N)CC(N)C(OC3OCC(C)(O)C(NC)C3O)C2O)O1 (stereo not drawn) [GEN, 2-[4,6-diamino-3-[3-amino-6-(1-methylaminoethyl)tetrahydropyran-2-yl]oxy-2-hydroxy-cyclohexoxy]-5-methyl-4-methylamino-tetrahydropyran-3,5-diol] | 0.8 | 0.7 | 0.6 | 0 | 0.5 | 0 | 0.7 | 0.8 | 0.6 | 0 | 0 | 3.5 | 4.7 | 0 | 3.3 | 0.5 | 1.0 | 0
CCn1cc(C(=O)O)c(=O)c2ccc(C)nc21 [NAL, 1-ethyl-7-methyl-4-oxo-[1,8]naphthyridine-3-carboxylic acid] | 2.4 | 6.6 | 0.6 | 3.5 | 1.6 | 3.5 | 3.6 | 6.8 | 1.9 | 8.3 | 1.2 | 11.6 | 26.7 | 2.6 | 6.6 | 5.1 | 5.4 | 2.2
C[C@@H]1O[C@@H]1P(=O)(O)O [FOF, [(2R,3S)-3-methyloxiran-2-yl]phosphonic acid] | 0 | 0.7 | 0.6 | 1.2 | 1.1 | 1.0 | 0 | 1.5 | 1.3 | 0 | 1.2 | 0 | 0.5 | 0.5 | 0.8 | 0.5 | 0.7 | 0
